# US20220096650A1 (Glaxosmithkline Intellectual Property Development Limited, priority 2019, published 2022)
# Assays:
# [1] = system: NCI-H929; test: Immunogenic cell death markers (ATP, HMGB1, CRT) after 48 hour treatment; assay type: cell-based, human
# Excerpt: The process of immunogenic cell death can induce the production of danger molecules that lead to the activation of dendritic cells (see FIG. 1A—ICD is a special type of apoptosis often associated with the cellular release of ATP and HMGB1, and exposure of CRT at the cellular membrane. ICD induces an immune response through engagement of the antigen presentation process by dendritic cells (DCs)). […] Anti-BCMA-MMAF induced ATP release, HMGB1 release and CRT exposure only in NCI-H929, a BCMA positive MM cell line). To investigate the effect of NCI-H929 cell killing by BCMA ADC on the activation of dendritic cells, co-culture experiments were carried out with BCMA ADC treated NCI-H929 cells and immature dendritic cells (iDCs) differentiated from human monocytes in vitro with GM-CSF/IL-4 treatment. A number of dendritic cell maturation markers as well as IL-10 and IL-12p70, two major cytokines secreted by dendritic cells upon activation, were monitored in this process to assess the effect of BCMA ADC induced cell death on dendritic cell activation.
# [2] = system: Dendritic cells co-cultured with BCMA ADC treated NCI-H929 cells; test: IL-10 and IL-12p70 in co-culture supernatants (MSD kits); assay type: cell-based, human
# Method: Day 7 iDCs were co-cultured with J6M0 ADC enhanced antigen binding protein treated NCI-H929 cells at 1:1 ratio for 24 hours on 96 well plates. All cells were counted at the initiation of the co-culture and diluted with X-Vivo-15 media to a concentration of 7.5×10^5 cells/mL. 7.5×10^4 cells/well (100 μl) each of iDCS and pre-treated NCI-H929 cells were combined in each well on a 96 well plate. Co-cultured cells were incubated 37° C./5% CO2 for 24 hours. A flow cytometry panel consisting of CD1a, CD11c, CD40, CD80, CD83, CD86, HLA-DR, & CD14 was used to assess fresh, FcR blocked Dendritic Cell differentiation and maturation on the FACS Canto II. […]
# Data analysis was performed in Flow Jo v7.6.5 for the flow cytometry panel and used either CD11c+ or HLA-DR+ cell gating to distinguish the dendritic Cells from the tumor cells. […] Data for the secreted IL-10 and IL-12p70 from supernatants in the co-culture assays w analyzed in MSD Discovery Workbench v4.0.12.
# FIGS. 3A and 3B: IL-10 decreased in the supernatants from co-cultured Dendritic cells from two healthy human donors and BCMA ADC treated NCI-H929 Multiple Myeloma cells. IL-10 was measured in (a) untreated (no BCMA ADC) Dendritic cells alone and (b-f) Dendritic cells that were co-cultured with (b) untreated (no BCMA ADC), (c) IgG Control (10 μg/mL), (d) 0.1, (e) 1 and (f) 10 μg/mL BCMA ADC treated (48 hours) NCI-H929 cells. […]
# [3] = system: NCI-H929 Multiple Myeloma cells; test: IL-10 in supernatants of NCI-H929 cells cultured alone; assay type: cell-based, human; settings: 48 hours, 0.1, 1, 10 μg/mL
# Method: Fresh, whole Human blood was obtained from three healthy donors from the Upper Providence Blood Donation Unit with syringes coated in liquid sodium heparin (Sagent 10 IU/mL final concentration). Monocytes were isolated from fresh, whole human blood using the RosetteSep Monocyte Enrichment kit (Cat. #15068) and were assessed for expression of cell surface CD14 (BD Bioscience Cat. #562698) using flow cytometry. Isolated Monocytes (1.5×10^6 cells/well) were cultured in 2 mLs of X-Vivo-15 Media supplemented with 1% autologous plasma, 50 ng/mL recombinant human GM-CSF (R&D, 215-GM-050) and 100 ng/mL recombinant human IL-4 (R&D, 204-IL-050) for 7 Days at 37° C./5% CO2. The cultures received a half media change at Day 3 or 4 while maintaining stimulation factor concentrations. NCI-H929 Multiple Myeloma cells were passaged for 2 passages from thaw at 37° C., 5% CO2, 90% humid air in RPMI-1640 supplemented with 10% FBS. Cells were plated at a density of 7.5×10^5 cells/ml in 2 mLs on 12 well plates. […]
# FIG. 3C: IL-10 decreased with BCMA ADC treatment in supernatants from NCI-H929 Multiple Myeloma cells cultured alone. IL-10 was measured in Untreated (a), IgG Control (b), 0.1 (c), 1 (d), and 10 μg/mL BCMA ADC (e) treated (48 hours) NCI-H929 Multiple Myeloma cells.
# [4] = Hallmarks of immunogenic cell death in vivo and in vitro (Example 7)
substance,measurement,setting,value
GSK2857916,HMGB1 release,"[1]; cellular supernatant, ELISA, only in NCI-H929",induced
same,ATP release,"[1]; cellular supernatant, luminescence, only in NCI-H929, a BCMA positive MM cell line",induced
same,CRT exposure,"[1]; flow cytometry, only in NCI-H929",induced
same,IL-10 production,"[2]; 0.1, 1, 10 μg/mL BCMA ADC",significant inhibitory effect
same,IL-12p70,[2]; all conditions,below the detection limit
same,IL-10 in supernatants,[3],decreased
same,"hallmarks of ICD (cell surface calreticulin and other ER stress response proteins, secretion of HMGB1)",[4],induces hallmarks of ICD
